In patent US20240058422A1, “GLUCAGON-LIKE PEPTIDE-1 RECEPTOR ANTAGONISTS” (INDIANA UNIVERSITY RESEARCH AND TECHNOLOGY CORPORATION, priority 2022, published 2024):
≈ marks a conversion by molar mass, not a printed value. Like-named read-outs stand apart in the source and are kept apart here. Starred links: 1 amine or outer side, 2 acyl side, 3 side chain; linkers in the order of their positions; H or OH if unused. Non-standard residues stand in square brackets, D forms with d. Residues, ends and D or L forms follow the SMILES beside them. Groups on a side chain read outwards from the residue. *: point of attachment. γGlu = O=C(O)[C@H](CCC(=O)[*:2])N[*:1]; Palmitoyl = CCCCCCCCCCCCCCCC(=O)*; AEEA = NCCOCCOCC(=O)O; Aib = CC(C)(N)C(=O)O

Legend:
GLP-1R = GLP-1R (Homo sapiens, UniProt P43220); assay: GLP-1 receptor-mediated cAMP induction, luciferase reporter gene antagonism assay; assay type: cell-based; design: host or cells: HEK 293; conditions: antagonism of 0.05 nM GLP-1, HEK 293 cells
Outline: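 HEK 293 cells cotransfected with human GLP-1 receptor and CRE-luciferase were serum-deprived 16 h, then given serial peptide dilutions followed by 0.05 nM GLP-1 and incubated 5 h at 37° C.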

[1] = pH 7.7, Solubility 80 mM AmeBicarb pH7.7
[2] = Table 3, amino acid substitution variants of Jant4-K40, read-out: Bioactivity IC50
[3] = pH 7.7, Solubility [mg/mL] 80 mM AmBicarb pH7.7
[4] = pH 7.7, Solubility [mg/mL] PBS pH7.7
[5] = Table 4, Aib variants of 9-40am Jant4 K40[C16], read-out: Bioactivity IC50
[6] = Table 2, C16 linker variants of 9-40amide Jant4 K40[X], read-out: Biactivity IC50

GLP-1R, sequence (P43220 24-463): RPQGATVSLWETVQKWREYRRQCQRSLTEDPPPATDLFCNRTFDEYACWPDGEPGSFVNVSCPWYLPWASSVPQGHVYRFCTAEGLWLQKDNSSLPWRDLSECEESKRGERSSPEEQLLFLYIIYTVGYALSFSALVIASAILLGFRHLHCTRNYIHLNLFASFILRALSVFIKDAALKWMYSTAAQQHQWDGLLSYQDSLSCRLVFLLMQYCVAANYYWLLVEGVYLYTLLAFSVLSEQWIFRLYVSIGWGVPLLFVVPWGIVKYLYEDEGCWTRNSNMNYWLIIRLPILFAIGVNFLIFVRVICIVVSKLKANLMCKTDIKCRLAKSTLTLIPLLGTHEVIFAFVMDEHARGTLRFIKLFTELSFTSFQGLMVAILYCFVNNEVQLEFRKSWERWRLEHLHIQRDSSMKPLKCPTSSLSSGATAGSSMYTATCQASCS

CCCCCCCCCCCCCCCC(=O)N[C@@H](CCC(=O)NCCOCCOCC(=O)NCCCC[C@H](NC(=O)[C@H](CO)NC(=O)[C@@H]1CCCN1C(=O)[C@@H]1CCCN1C(=O)[C@@H]1CCCN1C(=O)[C@H](C)NC(=O)CNC(=O)[C@H](CO)NC(=O)[C@H](CO)NC(=O)[C@@H]1CCCN1C(=O)CNC(=O)CNC(=O)[C@H](CCCNC(=N)N)NC(=O)[C@@H](NC(=O)[C@H](CC(C)C)NC(=O)[C@H](Cc1c[nH]c2ccccc12)NC(=O)[C@H](C)NC(=O)[C@@H](NC(=O)[C@H](Cc1ccccc1)NC(=O)[C@H](CCC(=O)O)NC(=O)[C@H](CCCNC(=N)N)NC(=O)[C@@H](NC(=O)[C@H](C)NC(=O)[C@H](CCC(N)=O)NC(=O)[C@H](CCC(=O)O)NC(=O)[C@H](CCC(=O)O)NC(=O)[C@H](CC(C)C)NC(=O)[C@H](Cc1ccc(O)cc1)NC(=O)[C@H](CO)NC(=O)[C@H](CO)NC(=O)[C@@H](NC(=O)[C@@H](N)CC(=O)O)C(C)C)C(C)C)[C@@H](C)CC)C(C)C)C(=O)O)C(=O)O [compound 77] (H-DVSSYLEEQAVREFIAWLVRGGPSSGAPPPSK([AEEA-γGlu-Palmitoyl])-OH)
solubility (physchem; [1]): > 20 mg/mL
IC50 (GLP-1R; [2]): 0.013 µM

CCCCCCCCCCCCCCCC(=O)NCCCC[C@H](NC(=O)[C@H](CO)NC(=O)[C@@H]1CCCN1C(=O)[C@@H]1CCCN1C(=O)[C@@H]1CCCN1C(=O)[C@H](C)NC(=O)CNC(=O)[C@H](CO)NC(=O)[C@H](CO)NC(=O)[C@@H]1CCCN1C(=O)CNC(=O)CNC(=O)[C@H](CCCCN)NC(=O)[C@@H](NC(=O)[C@H](CC(C)C)NC(=O)[C@H](Cc1c[nH]c2ccccc12)NC(=O)[C@H](C)NC(=O)[C@@H](NC(=O)[C@H](Cc1ccccc1)NC(=O)[C@H](CCC(=O)O)NC(=O)[C@H](CCCNC(=N)N)NC(=O)[C@H](NC(=O)[C@H](C)NC(=O)[C@H](CCC(N)=O)NC(=O)[C@H](CCC(=O)O)NC(=O)[C@H](CCC(=O)O)NC(=O)[C@H](CC(C)C)NC(=O)[C@H](Cc1ccc(O)cc1)NC(=O)[C@H](CO)NC(=O)[C@H](CO)NC(=O)[C@@H](NC(=O)[C@@H](N)CC(=O)O)C(C)C)C(C)C)[C@@H](C)CC)C(C)C)C(N)=O [compound 50] (H-DVSSYLEEQA[dV]REFIAWLVKGGPSSGAPPPSK(Palmitoyl)-NH2)
solubility (physchem; pH 7.7, Solubility [mg/mL] 80 mM/AmBicarb pH7.7): > 20 mg/mL
IC50 (GLP-1R; Table 5, d-AA variants of 9-40am Jant4 K40[C16], read-out: Bioactivity KC50): 0.124 µM

CCCCCCCCCCCCCCCC(=O)NCCCC[C@H](NC(=O)[C@H](CO)NC(=O)[C@@H]1CCCN1C(=O)[C@@H]1CCCN1C(=O)[C@@H]1CCCN1C(=O)[C@H](C)NC(=O)CNC(=O)[C@H](CO)NC(=O)[C@H](CO)NC(=O)[C@@H]1CCCN1C(=O)CNC(=O)CNC(=O)[C@H](CCCNC(=N)N)NC(=O)[C@@H](NC(=O)[C@H](CC(C)C)NC(=O)[C@H](Cc1c[nH]c2ccccc12)NC(=O)[C@H](CCC(=O)O)NC(=O)[C@@H](NC(=O)[C@H](Cc1ccccc1)NC(=O)[C@H](CCC(=O)O)NC(=O)[C@H](CCCNC(=N)N)NC(=O)[C@@H](NC(=O)[C@H](C)NC(=O)[C@H](CCC(N)=O)NC(=O)[C@H](CCC(=O)O)NC(=O)[C@H](CCC(=O)O)NC(=O)[C@H](CC(C)C)NC(=O)[C@H](Cc1ccc(O)cc1)NC(=O)[C@H](CO)NC(=O)[C@H](CO)NC(=O)[C@@H](NC(=O)[C@@H](N)CC(=O)O)C(C)C)C(C)C)[C@@H](C)CC)C(C)C)C(N)=O [compound 70] (H-DVSSYLEEQAVREFIEWLVRGGPSSGAPPPSK(Palmitoyl)-NH2)
solubility (physchem; [1]): > 20 mg/mL

CCCCCCCCCCCCCCCC(=O)NCCCC[C@H](NC(=O)[C@H](CO)NC(=O)[C@@H]1CCCN1C(=O)[C@@H]1CCCN1C(=O)[C@@H]1CCCN1C(=O)[C@H](C)NC(=O)CNC(=O)[C@H](CO)NC(=O)[C@H](CO)NC(=O)[C@@H]1CCCN1C(=O)CNC(=O)CNC(=O)C(C)(C)NC(=O)[C@@H](NC(=O)[C@H](CCCCN)NC(=O)[C@H](Cc1c[nH]c2ccccc12)NC(=O)[C@H](C)NC(=O)[C@@H](NC(=O)[C@H](Cc1ccccc1)NC(=O)[C@H](CCC(=O)O)NC(=O)[C@H](CCCNC(=N)N)NC(=O)[C@@H](NC(=O)[C@H](C)NC(=O)[C@H](CCC(N)=O)NC(=O)[C@H](CCC(=O)O)NC(=O)[C@H](CCC(=O)O)NC(=O)[C@H](CC(C)C)NC(=O)[C@H](Cc1ccc(O)cc1)NC(=O)[C@H](CO)NC(=O)[C@H](CO)NC(=O)[C@@H](NC(=O)[C@@H](N)CC(=O)O)C(C)C)C(C)C)[C@@H](C)CC)C(C)C)C(N)=O [compound 82] (H-DVSSYLEEQAVREFIAWKV[Aib]GGPSSGAPPPSK(Palmitoyl)-NH2)
solubility (physchem; [3]): 14.2 mg/mL (≈ 3.93 mM)
solubility (physchem; [4]): 0.1 mg/mL (≈ 0.0277 mM)
IC50 (GLP-1R; [5]): 0.006 µM

CCCCCCCCCCCCCCCC(=O)NCCCC[C@H](NC(=O)[C@H](CO)NC(=O)[C@@H]1CCCN1C(=O)[C@@H]1CCCN1C(=O)[C@@H]1CCCN1C(=O)[C@H](C)NC(=O)CNC(=O)[C@H](CO)NC(=O)[C@H](CO)NC(=O)[C@@H]1CCCN1C(=O)CNC(=O)CNC(=O)[C@H](CCCNC(=N)N)NC(=O)[C@@H](NC(=O)[C@H](CC(C)C)NC(=O)[C@H](Cc1c[nH]c2ccccc12)NC(=O)[C@H](CCC(=O)O)NC(=O)[C@@H](NC(=O)[C@H](Cc1ccccc1)NC(=O)[C@H](CCC(=O)O)NC(=O)[C@H](CCCNC(=N)N)NC(=O)[C@@H](NC(=O)[C@H](C)NC(=O)[C@H](CCC(N)=O)NC(=O)[C@H](CCC(=O)O)NC(=O)[C@H](CCC(=O)O)NC(=O)[C@H](CC(C)C)NC(=O)[C@H](Cc1ccc(O)cc1)NC(=O)[C@H](CCCNC(=N)N)NC(=O)[C@H](CO)NC(=O)[C@@H](NC(=O)[C@@H](N)CC(=O)O)C(C)C)C(C)C)[C@@H](C)CC)C(C)C)C(N)=O [compound 74] (H-DVSRYLEEQAVREFIEWLVRGGPSSGAPPPSK(Palmitoyl)-NH2; N-terminus assumed)
solubility (physchem; [1]): > 20 mg/mL
IC50 (GLP-1R; [2]): 0.015 µM

H-DVSSYLEEQAVREFIAWLVKGGPSSGAPPPSK-NH2 [compound 95]
solubility (physchem; [3]): 12.7 mg/mL
IC50 (GLP-1R; [6]): 0.281 µM

CCCCCCCCCCCCCCCC(=O)N[C@@H](CCC(=O)NCCOCCOCC(=O)NCCOCCOCC(=O)NCCCC[C@H](NC(=O)[C@H](CO)NC(=O)[C@@H]1CCCN1C(=O)[C@@H]1CCCN1C(=O)[C@@H]1CCCN1C(=O)[C@H](C)NC(=O)CNC(=O)[C@H](CO)NC(=O)[C@H](CO)NC(=O)[C@@H]1CCCN1C(=O)CNC(=O)CNC(=O)[C@H](CCCCN)NC(=O)[C@@H](NC(=O)[C@H](CC(C)C)NC(=O)[C@H](Cc1c[nH]c2ccccc12)NC(=O)[C@H](C)NC(=O)[C@@H](NC(=O)[C@H](Cc1ccccc1)NC(=O)[C@H](CCC(=O)O)NC(=O)[C@H](CCCNC(=N)N)NC(=O)[C@@H](NC(=O)[C@H](C)NC(=O)[C@H](CCC(N)=O)NC(=O)[C@H](CCC(=O)O)NC(=O)[C@H](CCC(=O)O)NC(=O)[C@H](CC(C)C)NC(=O)[C@H](Cc1ccc(O)cc1)NC(=O)[C@H](CO)NC(=O)[C@H](CO)NC(=O)[C@@H](NC(=O)[C@@H](N)CC(=O)O)C(C)C)C(C)C)[C@@H](C)CC)C(C)C)C(N)=O)C(=O)O [compound 48] (H-DVSSYLEEQAVREFIAWLVKGGPSSGAPPPSK([AEEA-AEEA-γGlu-Palmitoyl])-NH2; N-terminus assumed)
solubility (physchem; [3]): 9 mg/mL (≈ 2.22 mM)
IC50 (GLP-1R; [6]): 0.009 µM

CCCCCCCCCCCCCCCC(=O)NCCCC[C@H](NC(=O)[C@H](CO)NC(=O)[C@@H]1CCCN1C(=O)[C@@H]1CCCN1C(=O)[C@@H]1CCCN1C(=O)[C@H](C)NC(=O)CNC(=O)[C@H](CO)NC(=O)[C@H](CO)NC(=O)[C@@H]1CCCN1C(=O)CNC(=O)CNC(=O)[C@H](CCCCN)NC(=O)C(C)(C)NC(=O)[C@H](CC(C)C)NC(=O)[C@H](Cc1c[nH]c2ccccc12)NC(=O)[C@H](C)NC(=O)[C@@H](NC(=O)[C@H](Cc1ccccc1)NC(=O)[C@H](CCC(=O)O)NC(=O)[C@H](CCCNC(=N)N)NC(=O)[C@@H](NC(=O)[C@H](C)NC(=O)[C@H](CCC(N)=O)NC(=O)[C@H](CCC(=O)O)NC(=O)[C@H](CCC(=O)O)NC(=O)[C@H](CC(C)C)NC(=O)[C@H](Cc1ccc(O)cc1)NC(=O)[C@H](CO)NC(=O)[C@H](CO)NC(=O)[C@@H](NC(=O)[C@@H](N)CC(=O)O)C(C)C)C(C)C)[C@@H](C)CC)C(N)=O [compound 81] (H-DVSSYLEEQAVREFIAWL[Aib]KGGPSSGAPPPSK(Palmitoyl)-NH2)
solubility (physchem; [3]): 19 mg/mL (≈ 5.24 mM)
solubility (physchem; [4]): 1.6 mg/mL (≈ 0.441 mM)
IC50 (GLP-1R; [5]): 0.023 µM

CCCCCCCCCCCCCCCC(=O)N[C@@H](CCC(=O)NCCOCCOCC(=O)NCCCC[C@H](NC(=O)[C@H](CO)NC(=O)[C@@H]1CCCN1C(=O)[C@@H]1CCCN1C(=O)[C@@H]1CCCN1C(=O)[C@H](C)NC(=O)CNC(=O)[C@H](CO)NC(=O)[C@H](CO)NC(=O)[C@@H]1CCCN1C(=O)CNC(=O)CNC(=O)C(C)(C)NC(=O)[C@H](CCCNC(=N)N)NC(=O)[C@H](CC(C)C)NC(=O)[C@H](Cc1c[nH]c2ccccc12)NC(=O)[C@H](CCC(=O)O)NC(=O)[C@@H](NC(=O)[C@H](Cc1ccccc1)NC(=O)[C@H](CCC(=O)O)NC(=O)[C@H](CCCNC(=N)N)NC(=O)[C@@H](NC(=O)[C@H](C)NC(=O)[C@H](CCC(N)=O)NC(=O)[C@H](CCC(=O)O)NC(=O)[C@H](CCC(=O)O)NC(=O)[C@H](CC(C)C)NC(=O)[C@H](Cc1ccc(O)cc1)NC(=O)[C@H](CO)NC(=O)[C@H](CO)NC(=O)[C@@H](NC(=O)[C@@H](N)CC(=O)O)C(C)C)C(C)C)[C@@H](C)CC)C(=O)O)C(=O)O [compound 80] (H-DVSSYLEEQAVREFIEWLR[Aib]GGPSSGAPPPSK([AEEA-γGlu-Palmitoyl])-OH; N-terminus assumed)
solubility (physchem; [1]): > 20 mg/mL
IC50 (GLP-1R; [2]): 0.106 µM
